Drawing on BindingDB's records for PubMed 2746503 (Universit&Eacute, 1989), this text covers Ki for 2 compounds.

The target in test [1] is T1, Muscarinic acetylcholine receptor M2 (Sus scrofa, UniProt P06199).
T1 sequence (P06199 whole entry): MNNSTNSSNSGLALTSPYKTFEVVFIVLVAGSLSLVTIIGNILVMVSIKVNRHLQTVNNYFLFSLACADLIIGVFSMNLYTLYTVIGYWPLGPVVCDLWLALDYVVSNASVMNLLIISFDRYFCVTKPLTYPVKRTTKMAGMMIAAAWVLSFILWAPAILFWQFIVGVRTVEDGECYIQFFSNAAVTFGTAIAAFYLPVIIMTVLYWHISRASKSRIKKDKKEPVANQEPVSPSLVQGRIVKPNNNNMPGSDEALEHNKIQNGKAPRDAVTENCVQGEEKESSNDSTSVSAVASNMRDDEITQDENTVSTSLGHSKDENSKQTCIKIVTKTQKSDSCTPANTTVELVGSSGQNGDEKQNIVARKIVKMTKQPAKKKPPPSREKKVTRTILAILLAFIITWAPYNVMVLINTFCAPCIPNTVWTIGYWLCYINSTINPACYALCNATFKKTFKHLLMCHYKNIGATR

Test [2] deals with T2, Muscarinic acetylcholine receptor M2 (Homo sapiens, UniProt P08172).
T2 sequence (P08172 whole entry): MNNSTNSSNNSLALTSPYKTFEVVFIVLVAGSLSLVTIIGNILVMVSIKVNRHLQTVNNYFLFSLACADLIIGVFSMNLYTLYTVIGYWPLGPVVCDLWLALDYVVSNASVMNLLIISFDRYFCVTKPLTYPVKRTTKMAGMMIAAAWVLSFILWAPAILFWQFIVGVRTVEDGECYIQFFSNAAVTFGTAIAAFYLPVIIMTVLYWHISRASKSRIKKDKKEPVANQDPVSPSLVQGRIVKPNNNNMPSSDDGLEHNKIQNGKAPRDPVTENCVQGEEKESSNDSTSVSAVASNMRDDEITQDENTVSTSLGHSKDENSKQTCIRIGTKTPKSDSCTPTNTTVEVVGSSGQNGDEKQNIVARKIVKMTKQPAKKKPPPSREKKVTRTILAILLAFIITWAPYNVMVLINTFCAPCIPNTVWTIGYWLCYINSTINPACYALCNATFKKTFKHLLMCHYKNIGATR

Test [3] has as its target T3, Muscarinic acetylcholine receptor M2 (Rattus norvegicus, UniProt P10980).
T3 sequence (P10980 whole entry): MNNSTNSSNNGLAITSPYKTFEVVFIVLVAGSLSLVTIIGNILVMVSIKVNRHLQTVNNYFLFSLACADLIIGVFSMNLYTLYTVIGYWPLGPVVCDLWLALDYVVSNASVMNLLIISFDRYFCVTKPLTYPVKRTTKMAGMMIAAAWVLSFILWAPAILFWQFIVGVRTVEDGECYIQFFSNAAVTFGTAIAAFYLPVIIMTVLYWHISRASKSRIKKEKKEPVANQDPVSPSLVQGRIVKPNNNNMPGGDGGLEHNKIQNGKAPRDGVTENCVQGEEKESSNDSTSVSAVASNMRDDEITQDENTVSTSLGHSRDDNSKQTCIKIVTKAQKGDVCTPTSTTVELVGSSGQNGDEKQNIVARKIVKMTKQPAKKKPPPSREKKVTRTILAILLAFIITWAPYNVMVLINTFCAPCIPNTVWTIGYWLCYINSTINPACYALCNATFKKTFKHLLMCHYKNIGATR

“And” between values parts separate entries of the source, which are not always exact repeats. Equal entries are not always repeated.

As for `CN1CCN(CC(=O)N2c3ccccc3C(=O)Nc3cccnc32)CC1` [11-[(4-methylpiperazin-1-yl)acetyl]-5,11-dihydro-6H-pyrido[2,3-b][1,4]benzodiazepin-6-one], the Ki in test [1] was 80.7 nM and 276 nM.
Turning to `CCN(CC)CC1CCCCN1CC(=O)N1c2ccccc2C(=O)Nc2cccnc21` (centres undefined) [(AF-DX 116) 11-[2-(2-Diethylaminomethyl-piperidin-1-yl)-acetyl]-5,11-dihydro-benzo[e]pyrido[3,2-b][1,4]diazepin-6-one], the Ki in test [2] is 99.6 nM and 17.4 nM; in test [1], 28.8 nM and 21.8 nM; in test [3], 31.1 nM and 26.9 nM.

By Ki is commonly meant a measure of affinity in units of concentration, obtained from inhibition or displacement. The low end stands for higher affinity, the high end for lower affinity.
